# Laboratory results taken from patent publication US11814376B2, “Hepatitis b core protein modulators” (Assembly Biosciences, Inc., priority 2015, dated 2023).
# What was measured:
# [1] = system: HBV viral load in AD38 cells; assay: Viral load production in AD38 cells, quantitative PCR of the core sequence in supernatant; format: cell-based; conditions: Hepatitis B virus, 144 h, 10 μM compound, 6 days at 37° C., supernatant qPCR, relative to DMSO control; read-out: AD38 Viral Load (%) (VL with cmpd/VL in DMSO control) at 10 μM
# AD38 cells = assay: Viability of AD38 cells (Promega CellTiter-Glo); format: cell-based; conditions: 10 μM compound, 6 days, CellTiter-Glo luminescence normalized to DMSO control (100%)
# Summary of the method: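 After 6 days of compound exposure at 37° C (compound added as 10× solution in 10% DMSO; 50,000 cells/well, collagen-coated), medium was replaced with tetracycline-free DMEM/F12, 2% FBS, 1% DMSO. CellTiter-Glo luminescence was then recorded and normalized to DMSO-treated wells as 100% viability.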
SMILES,activity at 10 µM [1],AD38 Viability Normalized Result (cmpd/DMSO %) at 10 μM (AD38 cells)
O=C(NCc1cnc(C(F)(F)F)s1)c1cc2c(cc1C(F)(F)F)S(=O)(=O)c1ccccc1C(=O)N2 [compound 1936],13.5%,94%
CN(C)CCSc1ncc(CNC(=O)c2ccc3c(c2)NC(=O)c2ccccc2S3)s1 [compound 1604],0.9%,82%
O=C(NCc1cnc(-c2cncnc2)s1)c1ccc2c(c1)NC(=O)c1ccccc1S2(=O)=O [compound 1626],2.7%,99%
O=C(NCc1cnc(N2CCCCCC2)s1)c1ccc2c(c1)NC(=O)c1ccccc1S2(=O)=O [compound 1907],0.5%,85%
"O=C(NCc1cnc(-c2ccc(OC[C@@H]3CCNC3)cc2)s1)c1ccc2c(c1)NC(=O)c1ccccc1S2(=O)=O [compound 11140, (R)-11-oxo-N-((2-(4-(pyrrolidin-3-ylmethoxy)phenyl)thiazol-5-yl)methyl)-10, 11-dihydrodibenzo [b, f] [1, 4] thiazepine-8-carboxamide 5,5-dioxide]",5.5%,99%
"CN(C)CCCOc1ncc(CNC(=O)c2ccc3c(c2)NC(=O)c2ccccc2S3(=O)=O)s1 [compound 1680, N-((2-(3-(dimethylamino)propoxy)thiazol-5-yl)methyl)-11-oxo-10, 11-dihydrodibenzo [b, f] [1, 4] thiazepine-8-carboxamide 5,5-dioxide]",15%,94%
CS(=O)(=O)Nc1ccc(-c2ncc(CNC(=O)c3ccc4c(c3)NC(=O)c3ccccc3S4(=O)=O)s2)cc1 [compound 1857],1.5%,107%
"CN1CCC[C@@H]1COc1ccc(-c2ncc(CNC(=O)c3ccc4c(c3)NC(=O)c3ccccc3S4(=O)=O)s2)cc1 [compound 11131, (R)—N-((2-(4-((1-methylpyrrolidin-2-yl)methoxy)phenyl)thiazol-5-yl)methyl)-11-oxo-10,11-dihydrodibenzo [b, f] [1, 4] thiazepine-8-carboxamide 5,5-dioxide]",2%,88%
N#Cc1ccc(-c2ncc(CNC(=O)c3ccc4c(c3)NC(=O)c3ccccc3S4(=O)=O)s2)nc1 [compound 1881],0.8%,108%
"CCN(CC)CCCOc1ccc(-c2ncc(CNC(=O)c3ccc4c(c3)NC(=O)c3ccccc3O4)s2)cc1.Cl [compound 11162, N-((2-(4-(3-(diethylamino)propoxy)phenyl)thiazol-5-yl)methyl)-11-oxo-10, 11-dihydrodibenzo [b, f] [1, 4] oxazepine-8-carboxamide hydrochloride]",8.7%,104%
CN(CCCOc1ccc(-c2ncc(CNC(=O)c3ccc4c(c3)NC(=O)c3ccccc3S4(=O)=O)s2)cc1)C1CC1 [compound 11092],0.5%,101%
"O=C(O)CNc1ncc(CNC(=O)c2ccc3c(c2)NC(=O)c2ccccc2S3(=O)=O)s1 [compound 1583, (5-((5,5-dioxido-11-oxo-10, 11-dihydrodibenzo [b, f] [1, 4]thiazepine-8-carboxamido)methyl)thiazol-2-yl) glycine]",1%,0%
CN(C)CCCOc1ccc(-c2ncc(CNC(=O)c3ccc4c(c3)NC(=O)c3ccccc3S4(=O)=O)s2)cc1 [compound 1679],1.1%,94%
CN1CCN(c2ncc(CNC(=O)c3ccc4c(c3)NC(=O)c3ccccc3S4(=O)=O)s2)CC1 [compound 1648],9.9%,95%
O=C(NCc1cnc(-n2cccn2)s1)c1ccc2c(c1)NC(=O)c1ccccc1S2(=O)=O [compound 1960],0.8%,106%
"O=C(O)CNc1ncc(CNC(=O)c2ccc3c(c2)NC(=O)c2ccccc2S3)s1 [compound 1602, (5-((11-oxo-10, 11-dihydrodibenzo [b, f] [1, 4]thiazepine-8-carboxamido)methyl)thiazol-2-yl) glycine]",59.8%,97%
"O=C(NCc1cnc(Cc2ccc(O)cc2)s1)c1ccc2c(c1)NC(=O)c1ccccc1S2(=O)=O [compound 1823, N-((2-(4-hydroxybenzyl)thiazol-5-yl)methyl)-11-oxo-10, 11-dihydrodibenzo [b, f] [1, 4] thiazepine-8-carboxamide 5,5-dioxide]",5.2%,96%
O=C(NCc1cnc(-n2nccn2)s1)c1ccc2c(c1)NC(=O)c1ccccc1S2(=O)=O [compound 11048],1.2%,103%

SMILES,activity at 10 µM [1],AD38 Viability Normalized Result (cmpd/DMSO %) at 10 μM (AD38 cells)
"COc1c(C)cc(-c2ncc(CNC(=O)c3ccc4c(c3)NC(=O)c3ccccc3S4(=O)=O)s2)cc1C [1806-A, N-((2-(4-methoxy-3,5-dimethylphenyl)thiazol-5-yl)methyl)-11-oxo-10, 11-dihydrodibenzo [b, f] [1, 4] thiazepine-8-carboxamide 5,5-dioxide]",0.3%,66%
COc1ccc(-c2ncc(CNC(=O)c3ccc4c(c3)NC(=O)c3ccccc3O4)s2)cc1C [1736-A],14.1%,97%
"O=C(NCc1cnc(-c2ccc(O)nc2)s1)c1ccc2c(c1)NC(=O)c1ccccc1O2 [compound 1706, N-((2-(6-hydroxypyridin-3-yl)thiazol-5-yl)methyl)-11-oxo-10, 11-dihydrodibenzo [b, f] [1, 4] oxazepine-8-carboxamide]",57.5%,103%
O=C(NCc1cnc(-n2ccc(F)n2)s1)c1ccc2c(c1)NC(=O)c1ccccc1S2(=O)=O [compound 11045],0.6%,94%
CN(C)CCSc1ncc(CNC(=O)c2ccc3c(c2)NC(=O)c2ccccc2O3)s1 [compound 1617],2.2%,101%
COc1c(C)cc(-c2ncc(CNC(=O)c3ccc4c(c3)NC(=O)c3ccccc3O4)s2)cc1C [1738-A],1.8%,104%
"O=C(NCc1cnc(OCCOC2CCCCO2)s1)c1ccc2c(c1)NC(=O)c1ccccc1O2 (stereo not drawn) [1613-A, 11-oxo-N-((2-(2-((tetrahydro-2H-pyran-2-yl)oxy)ethoxy)thiazol-5-yl)methyl)-10, 11-dihydrodibenzo [b, f] [1, 4] oxazepine-8-carboxamide]",11.5%,95%
O=C(Nc1ncc(Cl)s1)c1ccc2c(c1)NC(=O)c1ccccc1S2(=O)=O [compound 1473],26.5%,79%
O=C(NCc1cnc(-c2ccc(O)cc2)s1)c1ccc2c(c1)NC(=O)c1c(F)cccc1S2 [compound 1752],29.8%,98%
"O=C(NCc1cnc(-c2ccc(-n3cccn3)cc2)s1)c1ccc2c(c1)NC(=O)c1ccccc1S2(=O)=O [compound 1952, N-((2-(4-(1H-pyrazol-1-yl)phenyl)thiazol-5-yl)methyl)-11-oxo-10, 11-dihydrodibenzo [b, f] [1, 4] thiazepine-8-carboxamide 5,5-dioxide]",0.8%,106%
"COc1ncc(-c2ncc(CNC(=O)c3ccc4c(c3)NC(=O)c3ccccc3O4)s2)cn1 [1709-A, N-((2-(2-methoxypyrimidin-5-yl)thiazol-5-yl)methyl)-11-oxo-10, 11-dihydrodibenzo [b, f] [1, 4] oxazepine-8-carboxamide]",29.5%,106%
"Cc1cc(-c2ncc(CNC(=O)c3ccc4c(c3)NC(=O)c3ccccc3S4(=O)=O)s2)ccc1O [compound 1804, N-((2-(4-hydroxy-3-methylphenyl)thiazol-5-yl)methyl)-11-oxo-10, 11-dihydrodibenzo [b, f] [1, 4] thiazepine-8-carboxamide 5,5-dioxide]",0.5%,103%
O=C(NCc1cnc(-c2ccc(O)cc2)s1)c1cc2c(cc1F)Sc1ccccc1C(=O)N2 [compound 1749],54.3%,109%
O=C(NCc1cnc(-n2cc(F)cn2)s1)c1ccc2c(c1)NC(=O)c1ccccc1S2(=O)=O [compound 11038],2%,99%
O=C(NCc1cnc(-c2ccc(-c3nccs3)cc2)s1)c1ccc2c(c1)NC(=O)c1ccccc1S2(=O)=O [compound 1954],0.5%,106%
N#Cc1ccc(-c2ncc(CNC(=O)c3ccc4c(c3)NC(=O)c3ccccc3S4(=O)=O)s2)cc1Cl [compound 1817],0.3%,97%
CCN(CC)CC(O)COc1ccc(-c2ncc(CNC(=O)c3ccc4c(c3)NC(=O)c3ccccc3S4(=O)=O)s2)cc1 (stereo not drawn) [compound 11086],4.7%,88%
"CN(C)CCOc1ncc(CNC(=O)c2ccc3c(c2)NC(=O)c2ccccc2O3)s1 [compound 1614, N-((2-(2-(dimethylamino)ethoxy)thiazol-5-yl)methyl)-11-oxo-10, 11-dihydrodibenzo [b, f] [1, 4] oxazepine-8-carboxamide]",8.5%,98%
